Earlier results in patent publication US20060153940A1, “Use of physiologically active fatty acids” (priority 2004, published 2006).

Substance: β-escin
- solubility in alcohol (alcohol): can be dissolved in alcohol
- solubility in water (water): practically water-insoluble
